According to US20240092835A1, “NOVEL PEPTIDES CAPABLE OF ALTERING NK CELL ACTIVITY” (Massachusetts Institute of Technology, priority 2022, published 2024):

Columns and labels:
[1] = target: T1, HLA-E (Homo sapiens, UniProt P13747); assay: HLA-E surface stabilization assay with RMA-S/HLA-E cells; format: cell-based; conditions: 30 μM peptide, 16 hours; for HLA-E surface expression stability (GeoMFI): anti-HLA-E antibody
T1 construct: expressed in transfected cells; host or cells: RMA-S/HLA-E cells (antigen processing-defective lymphoma cell line)
Procedure: HLA-E surface expression was assessed by measuring geometric mean fluorescence intensity (GeoMFI) in RMA-S cells following immunofluorescence staining with an anti-HLA-E antibody (Table 14). Increased GeoMFI was indicative of increased HLA-E surface expression stability following novel peptide exposures (FIG. 3).

[2] = system: NKG2A+/NKG2C− NK cells; assay: NK cell activation markers in NKG2A+/NKG2C- NK cells incubated with peptide and K562 expressing HLA-E (inhibition); format: cell-based, human; conditions: for effect on NKG2A+/NKG2C− NK cell inhibition (in words): K562 expressing HLA-E, CD107a, IFNG, TNF, CCL3; for percentage of CCL3+ NK cells / percentage of CD107a+ NK cells / percentage of IFNG+ NK cells / percentage of TNF+ NK cells: NKG2A+/NKG2C- NK cells, K562/HLA-E
Procedure: (§1) A human immortalized myelogenous leukemia cell line (K562), which expresses HLA-E was incubated with novel peptides (Table 1) derived from the human proteome or human cytomegalovirus proteome. […] Controls assessments were also performed using NKG2A−/NKG2C− cells (Tables 10-13). Inhibition was indicated by a decrease in percent cells positive for cell surface markers, while activation was indicated by an increase in percent cells positive for cell surface markers.

[3] = system: NKG2A−/NKG2C− NK cells; assay: NK cell activation markers in control NKG2A-/NKG2C- NK cells incubated with peptide and K562 expressing HLA-E; format: cell-based, human
Procedure: as §1

[4] = system: NKG2A−/NKG2C+ NK cells; assay: NK cell activation markers in NKG2A-/NKG2C+ NK cells incubated with peptide and K562 expressing HLA-E (activation); format: cell-based, human; conditions: for effect on NKG2A−/NKG2C+ NK cell activation (in words): K562 expressing HLA-E, CD107a, IFNG, TNF, CCL3; for percentage of CCL3+ NK cells / percentage of CD107+ NK cells / percentage of IFNG+ NK cells / percentage of TNF+ NK cells: NKG2A-/NKG2C+ NK cells, K562/HLA-E
Procedure: as §1

T1 sequence (P13747 22-358): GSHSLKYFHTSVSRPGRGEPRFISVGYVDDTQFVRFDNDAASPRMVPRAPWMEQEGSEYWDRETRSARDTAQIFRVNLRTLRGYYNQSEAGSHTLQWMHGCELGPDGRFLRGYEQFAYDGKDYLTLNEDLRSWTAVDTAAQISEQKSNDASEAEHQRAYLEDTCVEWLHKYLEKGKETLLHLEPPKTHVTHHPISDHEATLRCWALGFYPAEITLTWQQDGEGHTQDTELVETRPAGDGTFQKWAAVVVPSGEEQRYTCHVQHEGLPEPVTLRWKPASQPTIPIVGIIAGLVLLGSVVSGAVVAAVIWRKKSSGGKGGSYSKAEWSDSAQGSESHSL
T1 sequence (P61769 21-119 partner): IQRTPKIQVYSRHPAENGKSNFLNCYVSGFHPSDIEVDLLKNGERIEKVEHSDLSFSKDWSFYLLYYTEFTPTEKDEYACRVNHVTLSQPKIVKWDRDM

TLPERTLYL [human7, peptide ECEL1 269-277 derived from the human proteome]
HLA-E surface expression stability (GeoMFI) ([1]; Trial 1): 3203 GeoMFI
HLA-E surface expression stability (GeoMFI) ([1]; Trial 2): 3535 GeoMFI
HLA-E surface expression stability (GeoMFI) ([1]; Trial 3): 3903 GeoMFI
HLA-E surface expression stability (GeoMFI) ([1]; Trial 4): 4464 GeoMFI
effect on NKG2A+/NKG2C− NK cell inhibition (in words) [2]: strong inhibitory
percentage of CCL3+ NK cells ([2]; Trial 1): 1.37%
percentage of CD107a+ NK cells ([2]; Trial 1): 0.52%
percentage of IFNG+ NK cells ([2]; Trial 1): 0.13%
percentage of TNF+ NK cells ([2]; Trial 1): 0.05%
percentage of CCL3+ NK cells ([2]; Trial 2): 1.85%
percentage of CD107a+ NK cells ([2]; Trial 2): 0.72%
percentage of IFNG+ NK cells ([2]; Trial 2): 0.21%
percentage of TNF+ NK cells ([2]; Trial 2): 0.11%
percentage of CCL3+ NK cells ([2]; Trial 3): 1.62%
percentage of CD107a+ NK cells ([2]; Trial 3): 0.59%
percentage of IFNG+ NK cells ([2]; Trial 3): 0.49%
percentage of TNF+ NK cells ([2]; Trial 3): 0.1%
percentage of CCL3+ NK cells ([2]; Trial 4): 0.64%
percentage of CD107a+ NK cells ([2]; Trial 4): 0.71%
percentage of IFNG+ NK cells ([2]; Trial 4): 0.16%
percentage of TNF+ NK cells ([2]; Trial 4): 0.08%
percentage of CCL3+ NK cells ([2]; Trial 5): 1.26%
percentage of CD107a+ NK cells ([2]; Trial 5): 0.64%
percentage of IFNG+ NK cells ([2]; Trial 5): 0.28%
percentage of TNF+ NK cells ([2]; Trial 5): 0.18%
percentage of CCL3+ NK cells ([2]; Trial 6): 2.68%
percentage of CD107a+ NK cells ([2]; Trial 6): 1.96%
percentage of IFNG+ NK cells ([2]; Trial 6): 0.67%
percentage of TNF+ NK cells ([2]; Trial 6): 0.38%
percentage CCL3+ NK cells ([3]; Trial 1): 30.7%
percentage CD107+ NK cells ([3]; Trial 1): 21.8%
percentage TNF+ NK cells ([3]; Trial 1): 4.13%
percentage of IFNG+ NK cells ([3]; Trial 1): 13.3%
percentage CCL3+ NK cells ([3]; Trial 2): 49.5%
percentage CD107+ NK cells ([3]; Trial 2): 27.4%
percentage TNF+ NK cells ([3]; Trial 2): 7.88%
percentage of IFNG+ NK cells ([3]; Trial 2): 23.4%
percentage CCL3+ NK cells ([3]; Trial 3): 47%
percentage CD107+ NK cells ([3]; Trial 3): 41.8%
percentage TNF+ NK cells ([3]; Trial 3): 14.2%
percentage of IFNG+ NK cells ([3]; Trial 3): 34.9%
percentage CCL3+ NK cells ([3]; Trial 4): 27.4%
percentage CD107+ NK cells ([3]; Trial 4): 24%
percentage TNF+ NK cells ([3]; Trial 4): 7.92%
percentage of IFNG+ NK cells ([3]; Trial 4): 16.4%
percentage CCL3+ NK cells ([3]; Trial 5): 22.9%
percentage CD107+ NK cells ([3]; Trial 5): 17.2%
percentage TNF+ NK cells ([3]; Trial 5): 5.21%
percentage of IFNG+ NK cells ([3]; Trial 5): 12.7%
percentage CCL3+ NK cells ([3]; Trial 6): 22.6%
percentage CD107+ NK cells ([3]; Trial 6): 20.5%
percentage TNF+ NK cells ([3]; Trial 6): 4.34%
percentage of IFNG+ NK cells ([3]; Trial 6): 10.9%
effect on NKG2A−/NKG2C+ NK cell activation (in words) ([4]; listed as SEQ ID NO. 11): strong activating effects
effect on NKG2A−/NKG2C+ NK cell activation (in words) ([4]; listed as h7): strong inhibitory and activating effects
percentage of CCL3+ NK cells ([4]; Trial 1): 77%
percentage of CD107+ NK cells ([4]; Trial 1): 76.2%
percentage of IFNG+ NK cells ([4]; Trial 1): 66.6%
percentage of TNF+ NK cells ([4]; Trial 1): 54.5%
percentage of CCL3+ NK cells ([4]; Trial 2): 92.4%
percentage of CD107+ NK cells ([4]; Trial 2): 89.5%
percentage of IFNG+ NK cells ([4]; Trial 2): 87.3%
percentage of TNF+ NK cells ([4]; Trial 2): 79.9%
percentage of CCL3+ NK cells ([4]; Trial 3): 87.5%
percentage of CD107+ NK cells ([4]; Trial 3): 87.7%
percentage of IFNG+ NK cells ([4]; Trial 3): 79.8%
percentage of TNF+ NK cells ([4]; Trial 3): 70.1%
percentage of CCL3+ NK cells ([4]; Trial 4): 61.5%
percentage of CD107+ NK cells ([4]; Trial 4): 63.2%
percentage of IFNG+ NK cells ([4]; Trial 4): 54.1%
percentage of TNF+ NK cells ([4]; Trial 4): 47.8%
percentage of CCL3+ NK cells ([4]; Trial 5): 77.3%
percentage of CD107+ NK cells ([4]; Trial 5): 76.5%
percentage of IFNG+ NK cells ([4]; Trial 5): 70%
percentage of TNF+ NK cells ([4]; Trial 5): 66.1%
percentage of CCL3+ NK cells ([4]; Trial 6): 55.6%
percentage of CD107+ NK cells ([4]; Trial 6): 55.3%
percentage of IFNG+ NK cells ([4]; Trial 6): 45.4%
percentage of TNF+ NK cells ([4]; Trial 6): 37.8%

VLPHRTQFL [CMV1, novel CMV-derived peptide UL120 72-80, Merlin]
HLA-E surface expression stability (GeoMFI) ([1]; Trial 1): 2140 GeoMFI
HLA-E surface expression stability (GeoMFI) ([1]; Trial 2): 1714 GeoMFI
HLA-E surface expression stability (GeoMFI) ([1]; Trial 3): 2014 GeoMFI
HLA-E surface expression stability (GeoMFI) ([1]; Trial 4): 2421 GeoMFI
HLA-E surface expression stabilization strength, approximate GeoMFI ([1]; approximate value): approximately 2×10^3 GeoMFI
effect on NKG2A+/NKG2C− NK cell inhibition (in words) [2]: strong inhibitory
percentage of CCL3+ NK cells ([2]; Trial 1): 3.55%
percentage of CD107a+ NK cells ([2]; Trial 1): 2.12%
percentage of IFNG+ NK cells ([2]; Trial 1): 0.46%
percentage of TNF+ NK cells ([2]; Trial 1): 0.27%
percentage of CCL3+ NK cells ([2]; Trial 2): 7.82%
percentage of CD107a+ NK cells ([2]; Trial 2): 3.42%
percentage of IFNG+ NK cells ([2]; Trial 2): 1.08%
percentage of TNF+ NK cells ([2]; Trial 2): 0.39%
percentage of CCL3+ NK cells ([2]; Trial 3): 7.91%
percentage of CD107a+ NK cells ([2]; Trial 3): 4.2%
percentage of IFNG+ NK cells ([2]; Trial 3): 2.52%
percentage of TNF+ NK cells ([2]; Trial 3): 1.09%
percentage of CCL3+ NK cells ([2]; Trial 4): 3.5%
percentage of CD107a+ NK cells ([2]; Trial 4): 3.15%
percentage of IFNG+ NK cells ([2]; Trial 4): 0.93%
percentage of TNF+ NK cells ([2]; Trial 4): 0.7%
percentage of CCL3+ NK cells ([2]; Trial 5): 14.5%
percentage of CD107a+ NK cells ([2]; Trial 5): 3.92%
percentage of IFNG+ NK cells ([2]; Trial 5): 1.35%
percentage of TNF+ NK cells ([2]; Trial 5): 0.82%
percentage of CCL3+ NK cells ([2]; Trial 6): 3.86%
percentage of CD107a+ NK cells ([2]; Trial 6): 2.27%
percentage of IFNG+ NK cells ([2]; Trial 6): 0.82%
percentage of TNF+ NK cells ([2]; Trial 6): 0.34%
percentage CCL3+ NK cells ([3]; Trial 1): 29.9%
percentage CD107+ NK cells ([3]; Trial 1): 21.4%
percentage TNF+ NK cells ([3]; Trial 1): 2.62%
percentage of IFNG+ NK cells ([3]; Trial 1): 13.5%
percentage CCL3+ NK cells ([3]; Trial 2): 52.4%
percentage CD107+ NK cells ([3]; Trial 2): 32.5%
percentage TNF+ NK cells ([3]; Trial 2): 9.43%
percentage of IFNG+ NK cells ([3]; Trial 2): 27.7%
percentage CCL3+ NK cells ([3]; Trial 3): 47.3%
percentage CD107+ NK cells ([3]; Trial 3): 41.9%
percentage TNF+ NK cells ([3]; Trial 3): 13.6%
percentage of IFNG+ NK cells ([3]; Trial 3): 36.7%
percentage CCL3+ NK cells ([3]; Trial 4): 27.2%
percentage CD107+ NK cells ([3]; Trial 4): 25.7%
percentage TNF+ NK cells ([3]; Trial 4): 8.63%
percentage of IFNG+ NK cells ([3]; Trial 4): 17.4%
percentage CCL3+ NK cells ([3]; Trial 5): 26.6%
percentage CD107+ NK cells ([3]; Trial 5): 18.6%
percentage TNF+ NK cells ([3]; Trial 5): 6.68%
percentage of IFNG+ NK cells ([3]; Trial 5): 14.6%
percentage CCL3+ NK cells ([3]; Trial 6): 19.1%
percentage CD107+ NK cells ([3]; Trial 6): 14.5%
percentage TNF+ NK cells ([3]; Trial 6): 2.86%
percentage of IFNG+ NK cells ([3]; Trial 6): 8.57%
effect on NKG2A−/NKG2C+ NK cell activation (in words) [4]: strong inhibitory and activating effects
effect on NKG2A−/NKG2C+ NK cell activation (in words) ([4]; listed as SEQ ID NO. 15): strong activating effects
percentage of CCL3+ NK cells ([4]; Trial 1): 80.1%
percentage of CD107+ NK cells ([4]; Trial 1): 77.3%
percentage of IFNG+ NK cells ([4]; Trial 1): 66.3%
percentage of TNF+ NK cells ([4]; Trial 1): 53.3%
percentage of CCL3+ NK cells ([4]; Trial 2): 90.4%
percentage of CD107+ NK cells ([4]; Trial 2): 87.2%
percentage of IFNG+ NK cells ([4]; Trial 2): 82.8%
percentage of TNF+ NK cells ([4]; Trial 2): 76.1%
percentage of CCL3+ NK cells ([4]; Trial 3): 86.5%
percentage of CD107+ NK cells ([4]; Trial 3): 86.2%
percentage of IFNG+ NK cells ([4]; Trial 3): 78.5%
percentage of TNF+ NK cells ([4]; Trial 3): 68.8%
percentage of CCL3+ NK cells ([4]; Trial 4): 67.5%
percentage of CD107+ NK cells ([4]; Trial 4): 67.3%
percentage of IFNG+ NK cells ([4]; Trial 4): 58.2%
percentage of TNF+ NK cells ([4]; Trial 4): 51%
percentage of CCL3+ NK cells ([4]; Trial 5): 78.1%
percentage of CD107+ NK cells ([4]; Trial 5): 76.9%
percentage of IFNG+ NK cells ([4]; Trial 5): 69.5%
percentage of TNF+ NK cells ([4]; Trial 5): 66%
percentage of CCL3+ NK cells ([4]; Trial 6): 58.3%
percentage of CD107+ NK cells ([4]; Trial 6): 53.4%
percentage of IFNG+ NK cells ([4]; Trial 6): 42.5%
percentage of TNF+ NK cells ([4]; Trial 6): 33.3%
